Experiment [1] concerns the target T1, human thyroid receptor beta ligand-binding domain (LBD) (Homo sapiens, UniProt P10828).
T1 construct: purchased Invitrogen
T1 sequence (P10828 217-461 limits assumed): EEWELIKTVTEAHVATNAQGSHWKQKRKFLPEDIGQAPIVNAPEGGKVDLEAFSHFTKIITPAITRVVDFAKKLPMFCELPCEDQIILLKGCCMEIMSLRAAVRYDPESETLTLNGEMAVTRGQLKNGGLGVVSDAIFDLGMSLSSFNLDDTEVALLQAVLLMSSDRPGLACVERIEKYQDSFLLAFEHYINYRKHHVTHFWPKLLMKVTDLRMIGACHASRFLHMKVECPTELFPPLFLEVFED
The experiment is described as follows: TR-FRET thyroid receptor beta coactivator assay (THR biochemical assay, Assay 1). To be noted: for EC50: THR-beta, TR-FRET coactivator assay, read-out: Activity category Assay 1 (EC50, THR-beta agonist); for Emax: Table 5, Assay 1, THRβ, read-out: Activity category Assay 1 THRβ (Emax). In short, it runs like this:
(§1)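 GST-tagged human TRβ or TRα LBD, 1 nM final (stated for β), with fluorescein-SRC2-2 coactivator peptide (200 nM) and Tb-anti-GST antibody (2 nM). Agonists serially diluted, 1% DMSO final. 1 h incubation at rt in the dark; TR-FRET read as rise in fluorescein and drop in terbium emission.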

For experiment [2], the target named is T2, human thyroid receptor alpha ligand-binding domain (LBD) (Homo sapiens, UniProt P10827).
T2 construct: purchased Invitrogen
The experiment is described as follows: TR-FRET thyroid receptor alpha coactivator assay (THR biochemical assay, Assay 1). To be noted: for EC50: Table 4, THR-alpha, read-out: Activity category Assay 1 (EC50, THR-alpha agonist activity); for Emax: Table 5, THRα, read-out: Activity category Assay 1 THRα (Emax). In short, it runs like this: as §1

Experiment [3] concerns the target T3, THR beta (Homo sapiens, UniProt P10828).
T3 construct: expressed in transfected cells; host or cells: HEK293T (ATCC CRL-3216)
T3 sequence (P10828 1-461): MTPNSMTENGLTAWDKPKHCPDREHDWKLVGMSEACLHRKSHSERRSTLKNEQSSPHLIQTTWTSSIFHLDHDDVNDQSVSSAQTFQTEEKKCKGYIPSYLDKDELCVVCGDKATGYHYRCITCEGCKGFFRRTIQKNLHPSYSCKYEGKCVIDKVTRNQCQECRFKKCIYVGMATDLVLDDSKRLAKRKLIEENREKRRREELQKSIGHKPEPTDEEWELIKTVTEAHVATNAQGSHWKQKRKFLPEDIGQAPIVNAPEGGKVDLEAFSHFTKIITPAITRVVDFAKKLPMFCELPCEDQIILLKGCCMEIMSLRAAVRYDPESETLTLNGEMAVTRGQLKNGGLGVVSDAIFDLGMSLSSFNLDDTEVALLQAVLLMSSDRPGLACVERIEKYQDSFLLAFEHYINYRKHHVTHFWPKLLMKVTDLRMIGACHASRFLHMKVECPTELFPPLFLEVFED
T3 sequence (P19793 1-462 partner): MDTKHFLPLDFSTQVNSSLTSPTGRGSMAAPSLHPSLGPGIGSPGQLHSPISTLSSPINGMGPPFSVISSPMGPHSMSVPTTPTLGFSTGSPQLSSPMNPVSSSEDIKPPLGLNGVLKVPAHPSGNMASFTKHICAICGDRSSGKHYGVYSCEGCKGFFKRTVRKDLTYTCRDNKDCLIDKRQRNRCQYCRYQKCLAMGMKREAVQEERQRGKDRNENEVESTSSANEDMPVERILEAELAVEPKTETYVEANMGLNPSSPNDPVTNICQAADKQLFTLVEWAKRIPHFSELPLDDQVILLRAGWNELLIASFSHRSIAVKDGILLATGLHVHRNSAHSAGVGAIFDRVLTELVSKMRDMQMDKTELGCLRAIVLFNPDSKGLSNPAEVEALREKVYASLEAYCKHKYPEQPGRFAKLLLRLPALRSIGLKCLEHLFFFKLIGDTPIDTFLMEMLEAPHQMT
The experiment is described as follows: HEK293T THR beta/RXR luciferase reporter assay (Assay 2). Type of experiment: cell-based. The conditions noted are these: for Emax: HEK-293T, Table 5, Assay 2, THRβ, read-out: Activity category Assay 2 THRβ (Emax); for EC50: THR-beta, HEK293T reporter assay, read-out: Activity category Assay 2 (EC50, THR-beta agonist). In short, it runs like this: (§2)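 HEK293T cells transiently transfected with TRE-luciferase reporter, RXR, and THR alpha or THR beta plasmid; ten five-fold compound dilutions from DMSO added for 18-24 h. One-Glo luminescence read; percent agonism normalized between negative and positive controls.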

Experiment [4] concerns the target T4, THR alpha (Homo sapiens, UniProt P10827).
T4 construct: expressed in transfected cells; host or cells: HEK293T (ATCC CRL-3216)
T4 sequence (P10827 1-410 isoform P10827-2): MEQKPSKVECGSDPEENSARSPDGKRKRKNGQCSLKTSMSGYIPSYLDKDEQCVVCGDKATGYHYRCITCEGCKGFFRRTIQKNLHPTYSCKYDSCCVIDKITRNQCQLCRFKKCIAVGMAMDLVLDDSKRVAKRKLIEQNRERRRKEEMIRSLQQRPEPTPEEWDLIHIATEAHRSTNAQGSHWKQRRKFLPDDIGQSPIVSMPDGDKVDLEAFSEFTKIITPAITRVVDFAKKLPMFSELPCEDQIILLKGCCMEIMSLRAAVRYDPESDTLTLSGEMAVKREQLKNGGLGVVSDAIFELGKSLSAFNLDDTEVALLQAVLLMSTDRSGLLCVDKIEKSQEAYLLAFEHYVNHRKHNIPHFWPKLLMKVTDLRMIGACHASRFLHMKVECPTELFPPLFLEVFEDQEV
T4 sequence (P19793 1-462 partner): T3 sequence (P19793 1-462 partner)
The experiment is described as follows: HEK293T THR alpha/RXR luciferase reporter assay (Assay 2). Type of experiment: cell-based. The conditions noted are these: Assay 2; for Emax: HEK-293T, Table 5, THRα, read-out: Activity category Assay 2 THRα (Emax); for EC50: Table 4, THR-alpha, read-out: Activity category Assay 2 (EC50, THR-alpha agonist activity). In short, it runs like this: as §2

Bounds are passed on as bounds.

As to `Nc1nn(-c2cc(Cl)c(Oc3cc(C4CCc5ccccc54)c(=O)[nH]n3)c(Cl)c2)c(=O)[nH]c1=O` (stereo not drawn) [Compound 156, 6-amino-2-(3,5-dichloro-4-[[5-(2,3-dihydro-1H-inden-1-yl)-6-oxo-1H-pyridazin-3-yl]oxy]phenyl)-4H-1,2,4-triazine-3,5-dione], the 50% effective concentration (EC50) was under 50 nM in experiment [1], 50 to 250 nM in experiment [2], 50 to 250 nM in experiment [3] and 1000 to 10000 nM in experiment [4]. Further, the Emax is under 50% in experiment [1], under 50% in experiment [2], 50 to 75% in experiment [3] and under 50% in experiment [4].

Turning to `CO[C@H]1C[C@@H](c2cc(Oc3c(Cl)cc(-n4nc(N)c(=O)[nH]c4=O)cc3Cl)n[nH]c2=O)C1` [Compound 103], the half-maximal effective concentration (EC50) in experiment [1] is 1000 to 25000 nM; in experiment [2] it was over 25000 nM; in experiment [3], 1000 to 10000 nM; in experiment [4], over 10000 nM. The maximal effect (Emax) in experiment [1], in experiment [2], in experiment [3] and in experiment [4] was under 50% in each case.

Take `CC(C)c1n[nH]c2nnc(Oc3c(Cl)cc(-n4nc(N)c(=O)[nH]c4=O)cc3Cl)cc12` [Compound 75, 6-amino-2-(3,5-dichloro-4-((3-isopropyl-1H-pyrazolo[3,4-c]pyridazin-5-yl)oxy)phenyl)-1,2,4-triazine-3,5 (2H,4H)-dione]: the concentration giving a half-maximal response (EC50) in experiment [1] is under 50 nM; in experiment [2] it was 50 to 250 nM; in experiment [3], under 50 nM; in experiment [4], 250 to 1000 nM. Further, the maximal response (Emax) in experiment [1], in experiment [2], in experiment [3] and in experiment [4] was over 75% throughout.

`Cc1c(-n2nc(N)c(=O)[nH]c2=O)cc(Cl)c(Oc2cc(C(C)C)c(=O)[nH]n2)c1Cl` [Compound 35, 6-amino-2-[3,5-dichloro-4-[(5-isopropyl-6-oxo-1H-pyridazin-3-yl)oxy]-2-methyl-phenyl]-4H-1,2,4-triazine-3,5-dione]: the EC50 in experiment [1] was in the range of 1000 to 25000 nM; in experiment [2] it was 1000 to 25000 nM; in experiment [3], 1000 to 10000 nM; in experiment [4], 1000 to 10000 nM. In addition, the maximum response (Emax) in experiment [1] is 50 to 75%; in experiment [2], 50 to 75%; in experiment [3] it was 50 to 75%; in experiment [4], under 50%.

On to `CC(c1c[nH]c2ccc(Oc3c(Cl)cc(-n4nc(C#N)c(=O)[nH]c4=O)cc3Cl)cc12)C(F)(F)F` (stereo not drawn) [Compound 45, 2-(3,5-dichloro-4-[[3-(1,1,1-trifluoropropan-2-yl)-1H-indol-5-yl]oxy]phenyl)-3,5-dioxo-4H-1,2,4-triazine-6-carbonitrile], for which the EC50 in experiment [1] is under 50 nM; in experiment [2], under 50 nM; in experiment [3], 50 to 250 nM; in experiment [4], 250 to 1000 nM. Further, the Emax in experiment [1] was under 50%; in experiment [2], under 50%; in experiment [3] it was over 75%; in experiment [4], over 75%.

As for `CCc1cccc(-c2cc(Oc3c(Cl)cc(-n4nc(N)c(=O)[nH]c4=O)cc3Cl)n[nH]c2=O)c1` [Compound 71, 6-Amino-2-(3,5-dichloro-4-((5-(3-ethylphenyl)-6-oxo-1,6-dihydro-pyridazin-3-yl)oxy)phenyl)-1,2,4-triazine-3,5(2H,4H)-dione], the EC50 is under 50 nM in experiment [1], 50 to 250 nM in experiment [2], under 50 nM in experiment [3] and 50 to 250 nM in experiment [4]. Further, the maximal effect (Emax) was under 50% in experiment [1], under 50% in experiment [2], over 75% in experiment [3] and 50 to 75% in experiment [4].

`Nc1nn(-c2cc(Cl)c(Oc3cc(C4CCC(F)(F)CC4)c(=O)[nH]n3)c(Cl)c2)c(=O)[nH]c1=O` [Compound 97]: the EC50 in experiment [1] is 250 to 1000 nM; in experiment [2] it was 1000 to 25000 nM; in experiment [3] it was 1000 to 10000 nM; in experiment [4] it was over 10000 nM. Besides, the Emax in experiment [1], in experiment [2], in experiment [3] and in experiment [4] was under 50% each time.

On to `Cc1cc2cc(Oc3c(Cl)cc(-n4nc(C#N)c(=O)[nH]c4=O)cc3Cl)ccc2[nH]c1=O` [Compound 154, 2-[3,5-dichloro-4-[(3-methyl-2-oxo-1H-quinolin-6-yl)oxy]phenyl]-3,5-dioxo-1,2,4-triazine-6-carbonitrile], for which the EC50 is 50 to 250 nM in experiment [1], over 25000 nM in experiment [2] and over 10000 nM in experiment [3]. Also, the maximum response (Emax) in experiment [1], in experiment [2] and in experiment [4] was under 50% each time.

Turning to `CC(C)c1c[nH]c2ccc(Oc3c(Cl)cc(-n4nc(N)c(=O)[nH]c4=O)cc3Cl)cc12` [Compound 41, 6-amino-2-[3,5-dichloro-4-[(3-isopropyl-1H-indol-5-yl)oxy]phenyl]-4H-1,2,4-triazine-3,5-dione], the EC50 in experiment [1], in experiment [2], in experiment [3] and in experiment [4] was under 50 nM in each case. Moreover, the Emax was 50 to 75% in experiment [1], 50 to 75% in experiment [2], over 75% in experiment [3] and 50 to 75% in experiment [4].

Consider `Nc1nn(-c2cc(Cl)c(Oc3ccc4c(c3)C3(CCCCC3)C(=O)N4)c(Cl)c2)c(=O)[nH]c1=O` [Compound 85], for which the EC50 in experiment [1], in experiment [2] and in experiment [4] was under 50 nM each time. The maximal effect (Emax) in experiment [1] was under 50%; in experiment [2] it was under 50%; in experiment [3] it was over 75%; in experiment [4], 50 to 75%.

Turning to `CC(C)c1cc(Cc2c(Cl)cc(-n3nc(N)c(=O)[nH]c3=O)cc2Cl)n[nH]c1=O` [Compound 36, 6-Amino-2-[3,5-dichloro-4-[(5-isopropyl-6-oxo-1H-pyridazin-3-yl)methyl]-phenyl]-4H-1,2,4-triazine-3,5-dione], the EC50 in experiment [1] is under 50 nM; in experiment [2], 50 to 250 nM; in experiment [3], under 50 nM; in experiment [4] it was under 50 nM. For the same molecule, the Emax in experiment [1] was 50 to 75%; in experiment [2], 50 to 75%; in experiment [3], 50 to 75%; in experiment [4], under 50%.

As for `CC(C)(O)c1cc(Oc2c(Cl)cc(-n3nc(N)c(=O)[nH]c3=O)cc2Cl)n[nH]c1=O` [Compound 60, 6-amino-2-(3,5-dichloro-4-[[5-(2-hydroxypropan-2-yl)-6-oxo-1H-pyridazin-3-yl]oxy]phenyl)-4H-1,2,4-triazine-3,5-dione], the half-maximal effective concentration (EC50) was 250 to 1000 nM in experiment [1], 1000 to 25000 nM in experiment [2], 1000 to 10000 nM in experiment [3] and 1000 to 10000 nM in experiment [4]. Also, the maximal effect (Emax) was under 50% in experiment [1], under 50% in experiment [2], over 75% in experiment [3] and over 75% in experiment [4].

For the origin of these results see US12180192B2, “Modulators of THR-β and methods of use thereof” (ALIGOS THERAPEUTICS, INC., priority 2019, dated 2024).
